Data: patent US20240158447A1, “PEPTIDES FOR USE IN THE TREATMENT OR PREVENTION OF MYOCARDIAL DAMAGE” (THE UNIVERSITY OF WESTERN AUSTRALIA, priority 2020, published 2024)

How the values were obtained:
[1] = test system: cTnI-G203S mutant myocytes; assay: Flavoprotein oxidation response to BayK(−), cTnI-G203S myocytes (Example 10); assay type: cell-based, mouse; conditions: 0.5 μM peptide, 10 μM BayK(−), FIG. 10D
Description: (§1) In this experiment wt myocytes were pre-exposed to 0.1, 0.5 or 1 μM for 20 min and assessed changes in flavoprotein oxidation and ψm.
Measurement of mitochondrial flavoprotein oxidation: Flavoprotein autofluorescence was used to measure flavoprotein oxidation based on previously described methods (Yaniv Y, Juhaszova M, Lyashkov A E, Spurgeon H A, Sollott S J, Lakatta E G. Ca2+-regulated-cAMP/PKA signaling in cardiac pacemaker cells links ATP supply to demand. J Mol Cell Cardiol. 2011; 51(5):740-8). […] Fluorescent images were acquired at 1 min intervals with 200 ms exposure. Metamorph 6.3 (Version 7.10.3) was used to quantify the signal by manually tracing myocytes. […] Fluorescence values recorded over 5 min before and 5 min after addition of drugs were averaged and alterations in fluorescent ratios reported as the percentage increase from the basal average. FCCP (50 μM) and NaCN (40 mM) was added at the end of each experiment to achieve a respective maximal and minimal fluorescence value indicative of maximal and minimal flavoprotein oxidation.
The ICA-L agonist BayK(−) was used to activate the channel and assess mitochondrial function. […] FIG. 10 presents the mean+/−SEM of flavoprotein fluorescence from cTnI.2 wt and cTnI-G2035 mutant myocytes before and after exposure to 10 μM BayK(−) in the presence of 1 μM AID(S)-TAT, and increasing concentrations of variant peptides as indicated. […]

cTnI.2 wt myocytes [2] = assay: Mitochondrial membrane potential (JC-1) response to BayK(−), wt myocytes (Example 10); assay type: cell-based, mouse; conditions: 0.5 μM peptide, calcium-free, FIG. 11A
Description: as §1
Measurement of mitochondrial membrane potential: The fluorescent indicator 5,5′,6,6′-tetrachloro1,1′,3,3′-tetraethylbenzimidazolylcarbocyanine iodide (JC-1) was used to measure mitochondrial membrane potential (ψm) as previously described (Viola H M, Arthur P G, Hool L C. Transient exposure to hydrogen peroxide causes an increase in mitochondria-derived superoxide as a result of sustained alteration in L-type Ca2+ channel function in the absence of apoptosis in ventricular myocytes. Circ Res. 2007; 100(7):1036-44). […] Images were acquired at 2 min intervals with 50 ms exposure. Metamorph 6.3 (Version 7.10.3) was used to quantify the signal by manually tracing myocytes. An equivalent region not containing cells was used as background and was subtracted. The 580 nm/535 nm ratiometric fluorescence values recorded over 6 min before and 4 min after addition of drugs were averaged and alterations in fluorescent ratios reported as the percentage increase from the basal average. […] In addition, individual 580 and 535 signals were assessed in each experiment to determine whether the fluorescent indicator was accurately measuring ψm. […]
Based on results obtained from in vitro assessment of flavoprotein oxidation, the effect of 0.5 μM AID-TAT variants on changes in mitochondrial membrane potential (ψm) was further explored. Experiments were performed using JC-1 fluorescence under calcium-free conditions as previously described (Viola H, Johnstone V, Cserne Szappanos H, Richman T, Tsoutsman T, Filipovska A, et al. The L-type Ca(2+) channel facilitates abnormal metabolic activity in the cTnI-G2035 mouse model of hypertrophic cardiomyopathy. J Physiol. 2016; 594(14):4051-70; Viola H M, Shah A A, Johnstone V P A, Cserne Szappanos H, Hodson M P, Hool L C. Characterization and validation of a preventative therapy for hypertrophic cardiomyopathy in a murine model of the disease. Proc Natl Acad Sci U S A. 2020; 117(37):23113-24). […]

[3] = test system: cTnI-G203S mutant myocytes; assay: Mitochondrial membrane potential (JC-1) response to BayK(−), cTnI-G203S myocytes (Example 10); assay type: cell-based, mouse; conditions: for BayK(−) induced increase in ψm (JC-1 fluorescence): 0.5 μM peptide, calcium-free, FIG. 11B
Description: as §1
Measurement of mitochondrial membrane potential: The fluorescent indicator 5,5′,6,6′-tetrachloro1,1′,3,3′-tetraethylbenzimidazolylcarbocyanine iodide (JC-1) was used to measure mitochondrial membrane potential (ψm) as previously described (Viola H M, Arthur P G, Hool L C. Transient exposure to hydrogen peroxide causes an increase in mitochondria-derived superoxide as a result of sustained alteration in L-type Ca2+ channel function in the absence of apoptosis in ventricular myocytes. Circ Res. 2007; 100(7):1036-44). […] Images were acquired at 2 min intervals with 50 ms exposure. Metamorph 6.3 (Version 7.10.3) was used to quantify the signal by manually tracing myocytes. An equivalent region not containing cells was used as background and was subtracted. The 580 nm/535 nm ratiometric fluorescence values recorded over 6 min before and 4 min after addition of drugs were averaged and alterations in fluorescent ratios reported as the percentage increase from the basal average. To confirm that the signal was indicative of ψm, 40 mM NaCN was added at the end of each experiment to collapse ψm. In addition, individual 580 and 535 signals were assessed in each experiment to determine whether the fluorescent indicator was accurately measuring ψm. For calcium-free experiments, cells were exposed to calcium-free HBS (supplemented with 3 mM EGTA and 200 nM JC-1) for at least 3 h prior to measuring changes in ψm.
Based on results obtained from in vitro assessment of flavoprotein oxidation, the effect of 0.5 μM AID-TAT variants on changes in mitochondrial membrane potential (ψm) was further explored. Experiments were performed using JC-1 fluorescence under calcium-free conditions as previously described (Viola H, Johnstone V, Cserne Szappanos H, Richman T, Tsoutsman T, Filipovska A, et al. The L-type Ca(2+) channel facilitates abnormal metabolic activity in the cTnI-G2035 mouse model of hypertrophic cardiomyopathy. J Physiol. 2016; 594(14):4051-70; Viola H M, Shah A A, Johnstone V P A, Cserne Szappanos H, Hodson M P, Hool L C. Characterization and validation of a preventative therapy for hypertrophic cardiomyopathy in a murine model of the disease. Proc Natl Acad Sci U S A. 2020; 117(37):23113-24). […] FIG. 11 presents the mean+/−SE of JC-1 fluorescence from cTnI.2 wt and cTnI-G203S mutant myocytes before and after exposure to 10 μM BayK(−) in the presence of 1 μM AID(S)-TAT, and 0.5 μM of variant peptides as indicated. N=no. of animals, n=no. of cardiomyocytes. P values shown compared with AID(S)-TAT as determined by the Kruskal-Wallis test.

cTnI-G203S mice [4] = assay: Echocardiography of pre-cardiomyopathic cTnI-G203S mice (Example 15); assay type: in vivo, mouse; conditions: 5 μM, 3×/wk/5 wk; versus AID(S)-TAT; FIG. 15
Text: Twenty to thirty week-old male mice expressing the human cTnI gene encoding the human disease-causing cTnI-G203S were generated and used for the in vivo studies. By way of background, the mice develop hallmark features of HCM between 20 and 25 weeks (Viola H, Johnstone V, Cserne Szappanos H, Richman T, Tsoutsman T, Filipovska A, et al. The L-type Ca(2+) channel facilitates abnormal metabolic activity in the cTnI-G2035 mouse model of hypertrophic cardiomyopathy. J Physiol. 2016; 594(14):4051-70; Viola H M, Shah A A, Johnstone V P A, Cserne Szappanos H, Hodson M P, Hool L C. Characterization and validation of a preventative therapy for hypertrophic cardiomyopathy in a murine model of the disease. Proc Nati Aced Sci U S A. 2020; 117(37):23113-24; Tsoutsman T, Chung J, Doolan A, Nguyen L, Williams IA, Tu E, et al. Molecular insights from a novel cardiac troponin I mouse model of familial hypertrophic cardiomyopathy. J Mol Cell Cardiol. 2006; 41(4):623-32). Age-matched male mice expressing the normal human troponin I gene were used as controls and indicated as wild-type (wt). For in vivo studies, 20-week old cTnI-G203S mice were treated with 10 μM AID(S)-TAT (2 mg/kg) or 5 μM AID-TAT mutant peptides via intraperitoneal injection, 3 times per week for a total duration of 5 weeks. The peptide was dissolved in phosphate buffered saline solution (PBS), and the total amount of the 10 μM AID-TAT mutant peptides administered over 5 weeks was 0.9 mg. The total amount of the 5 μM AID-TAT mutant peptides administered over 5 weeks was 0.45 mg Male mice were utilized to eliminate potential differences in responses due to gender. The number of mice used is indicated by N.
Echocardiographic studies to measure left ventricular function were performed on mice under light methoxyflurane anaesthesia with the use of an i13L probe on a Vivid™ 7 IQ ultrasound system (GE Healthcare, Little Chalfont, UK) as previously described (Viola H, Johnstone V, Cserne Szappanos H, Richman T, Tsoutsman T, Filipovska A, et al. The L-type Ca(2+) channel facilitates abnormal metabolic activity in the cTnI-G2035 mouse model of hypertrophic cardiomyopathy. J Physiol. 2016; 594(14):4051-70; Viola H M, Shah A A, Johnstone V P A, Cserne Szappanos H, Hodson M P, Hool L C. Characterization and validation of a preventative therapy for hypertrophic cardiomyopathy in a murine model of the disease. Proc Natl Acad Sci U S A. 2020; 117(37):23113-24; Viola H M, Johnstone V P A, Cserne Szappanos H, Richman T R, Tsoutsman T, Filipovska A, et al. The Role of the L-Type Ca(2+) Channel in Altered Metabolic Activity in a Murine Model of Hypertrophic Cardiomyopathy. JACC Basic Transl Sci. 2016; 1(1-2):61-72). Each N represents the average of quantitative measurements from wt or cTnI-G203S mice for each treatment group.

cTnI-G203S mice [5] = assay: Heart weight to body weight ratio of treated cTnI-G203S mice; assay type: in vivo, mouse; conditions: 5 μM, 3×/wk/5 wk; compared with cTnI-G203S AID(S)-TAT; FIG. 16
Description: The effect of treatment of the mice with peptides on the development of hypertrophy assessed as changes in heart weight to body weight ratio was also examined. […] FIG. 16 presents the mean±SEM of heart weight to body weight ratio measurements from wt and cTnI-G203S mice treated with 10 μM AID(S)-TAT, 10 μM AID-TAT, 5 μM AIDP7-TAT, 5 μM AIDP14-TAT, 5 μM AIDP15-TAT or 5 μM AIDP16-TAT. n=number of mice as indicated. *P<0.05, **P<0.01 compared with cTnI-G203S AID(S)-TAT as determined by Kruskal-Wallis tests.

cTnI.2 wt myocytes [6] = assay: Flavoprotein oxidation response to BayK(−), wt myocytes (Example 10); assay type: cell-based, mouse; conditions: 1 μM peptide 20 min, 10 μM BayK(−), FIG. 10A
Description: as §1
Measurement of mitochondrial flavoprotein oxidation: Flavoprotein autofluorescence was used to measure flavoprotein oxidation based on previously described methods (Yaniv Y, Juhaszova M, Lyashkov A E, Spurgeon H A, Sollott S J, Lakatta E G. Ca2+-regulated-cAMP/PKA signaling in cardiac pacemaker cells links ATP supply to demand. J Mol Cell Cardiol. 2011; 51(5):740-8). […] Fluorescent images were acquired at 1 min intervals with 200 ms exposure. Metamorph 6.3 (Version 7.10.3) was used to quantify the signal by manually tracing myocytes. An equivalent region not containing cells was used as background and was subtracted. Fluorescence values recorded over 5 min before and 5 min after addition of drugs were averaged and alterations in fluorescent ratios reported as the percentage increase from the basal average. FCCP (50 μM) and NaCN (40 mM) was added at the end of each experiment to achieve a respective maximal and minimal fluorescence value indicative of maximal and minimal flavoprotein oxidation.
The ICA-L agonist BayK(−) was used to activate the channel and assess mitochondrial function. […] FIG. 10 presents the mean+/−SEM of flavoprotein fluorescence from cTnI.2 wt and cTnI-G2035 mutant myocytes before and after exposure to 10 μM BayK(−) in the presence of 1 μM AID(S)-TAT, and increasing concentrations of variant peptides as indicated. N=no. of animals, n=no. of cardiomyocytes. P values shown compared with AID(S)-TAT as determined by the Kruskal-Wallis test.

Row | Substance | BayK(−) induced increase in flavoprotein oxidation [1] | BayK(−) induced increase in ψm (JC-1 fluorescence) (cTnI.2 wt myocytes [2]) | BayK(−) induced increase in ψm (JC-1 fluorescence) [3] | normalising mitochondrial metabolic activity (in vitro, overall) ([3]; flavoprotein oxidation and JC-1 data together) | EF, ejection fraction (cTnI-G203S mice [4]) | FS, fractional shortening (cTnI-G203S mice [4]) | IVSd, intraventricular septum in diastole (cTnI-G203S mice [4]) | IVSs, intraventricular septum in systole (cTnI-G203S mice [4]) | LVEDd, left ventricular end diameter during diastole (cTnI-G203S mice [4]) | LVEDs, left ventricular end diameter during systole (cTnI-G203S mice [4]) | LVPWd, left ventricular posterior wall in diastole (cTnI-G203S mice [4]) | LVPWs, left ventricular posterior wall in systole (cTnI-G203S mice [4]) | heart weight to body weight ratio (cTnI-G203S mice [5]) | BayK(−) induced increase in flavoprotein oxidation (cTnI.2 wt myocytes [6])
1 | AIDP14-TAT: QQEEEDLKGYLDWITQAE with TAT sequence | significantly attenuated increases in flavoprotein oxidation resulting from BayK(−) exposure | significantly attenuated the response | significantly attenuated the response | most effective in normalising mitochondrial metabolic activity | effectively restored | effectively restored | effectively restored | effectively restored | trend toward increased LVEDd | effectively restored | effectively restored | effectively restored | significantly decreased heart weight/body weight | 
2 | AIDP15-TAT: QQEEEDEKGYLDWITQAE with TAT sequence |  | significantly attenuated the response | significantly attenuated the response |  | effectively restored | effectively restored | effectively restored | effectively restored |  |  |  | effectively restored |  | just as effective at attenuating the response in wt myocytes as the original AID-TAT
